Test results: ChEMBL document CHEMBL5046276 (J Med Chem, 2022)
Calls of active or inactive are those of the source. The rule behind the calls is not given here.

Assays:
Plasmodium falciparum [1] = assay: Antimalarial activity against asexual blood stage quinine-resistant Plasmodium falcipuram C2A assessed as parasite growth inhibition incubated for 72 hrs by SYBR Green I staining based fluorescence analysis; assay type: functional, organism-based
Plasmodium falciparum [2] = assay: Antimalarial activity against asexual blood stage chloroquine-resistant Plasmodium falciparum Dd2 assessed as parasite growth inhibition incubated for 72 hrs by SYBR Green I staining based fluorescence analysis; assay type: functional, organism-based; settings: Dd2, 72 h
[3] = Cytotoxicity against human HepG2 cells incubated for 72 hrs by CCK-8 assay
[4] = Cytotoxicity against HEK293T cells incubated for 72 hrs by CCK-8 assay; settings: human
[5] = Metabolic stability in mouse liver microsomes assessed as intrinsic clearance at […] incubated for 45 mins in presence of NADPH by LC/MS analysis; assay type: ADME, Microsome; settings: read-out: CLH
Plasmodium yoelii [6] = assay: Antimalarial activity against blood stage Plasmodium yoelii infected in BALB/c mouse assessed as parasite recrudescence by measuring parasitemia at 60 mg/kg, ip qd for 5 days and measured on 12 to 18 days; assay type: functional; settings: time 12-18 day
Plasmodium yoelii [7] = assay: Antimalarial activity against blood stage Plasmodium yoelii infected in BALB/c mouse assessed as parasite recrudescence by measuring parasitemia at 30 mg/kg, ip qd for 5 days and measured for 8 to 16 days; assay type: functional; settings: time 8-16 day
Plasmodium berghei = assay: Antimalarial activity against liver stage transgenic Plasmodium berghei ANKA sporozoites transfected with GFP-Luc infected in BALB/c mouse assessed as delayed progression of infection at 30 mg/kg, iv measured for 1 to 4 days post-administration by IVIS spectrum in vivo imaging analysis; assay type: functional, organism-based; settings: time 1-4 day
Plasmodium falciparum [8] = assay: Antimalarial activity against late stage (IV) Plasmodium falciparum NF54 gametocytes transfected with p230p-Luc assessed as reduction in gametocyte viability incubated for 48 hrs by luciferase reporter gene based bioluminescence assay; assay type: functional, organism-based; settings: NF54, 48 h
Plasmodium falciparum [9] = assay: Antimalarial activity against blood stage asynchronous Plasmodium falcipuram 3D7 assessed as parasite growth inhibition by measuring parasitemia at 10 to 100 nM incubated for 12 to 24 hrs by flow cytometry; assay type: functional, organism-based; settings: dose 10-100 nM, time 12-24 hrs
Plasmodium falciparum [10] = assay: Antimalarial activity against blood stage asynchronous Plasmodium falcipuram 3D7 assessed as suppression of parasite reproduction by measuring parasitemia at 10 nM incubated for 24 hrs followed by compound washout and replacement with fresh medium without compounds and measured after 4 days by flow cytometry; assay type: functional
Plasmodium falciparum [11] = assay: Antimalarial activity against synchronized Plasmodium falcipuram 3D7 infected in human RBC assessed as ring stage parasite killing at 40 nM treated […] and incubated for 12 hrs followed by compound washout and replacement with fresh medium without compounds and measured at 50 hrs post infection by Geimsa staining based microscopy; assay type: functional, organism-based
Plasmodium falciparum [12] = assay: Antimalarial activity against synchronized Plasmodium falcipuram 3D7 infected in human RBC assessed as irreversible inhibition of parasite growth at schizont stage at 40 nM treated 29 to 41 hpi incubated for 12 hrs followed by compound washout and replacement with fresh medium without compounds and measured after 4 days by flow cytometry; assay type: functional, organism-based
Plasmodium falciparum [13] = assay: (§1) Antimalarial activity against wild-type Plasmodium falcipuram 3D7 infected in human RBC assessed as reduction in parasitemia in blood smear by measuring parasite survival ratio at ring stage at upto 700 nM incubated for 6 hrs followed by compound washout and replacement with fresh medium without compounds and measured after 66 hrs by ring stage survival assay; assay type: functional; settings: dose nM <=700, time 6.0 hrs
Plasmodium falciparum [14] = assay: as §1, with “ART-resistant” for “wild-type”, “6218 harbouring C580Y mutant” for “3D7”; assay type: functional; settings: dose nM <=700, time 6.0 hrs
[15] = In vivo inhibition of C-terminal TY1 fused HDAC1 in Plasmodium falcipuram 3D7 assessed as inhibition of parasite growth incubated for 4 hrs followed by compound washout and replacement with fresh medium with compounds measured after 68 hrs by SYBR Green I staining based fluorescence analysis; assay type: functional, organism-based, Plasmodium falciparum
Plasmodium falciparum [16] = assay: Inhibition of Plasmodium falcipuram recombinant HDAC1 using HDAC-Glo I/II as substrate at 50 to 800 nM preincubated for 90 mins by luminescence based microplate reader analysis; settings: dose 50-800 nM
Histone deacetylase 2 [17] = target: T1, Histone deacetylase 2 (Homo sapiens, UniProt Q92769); assay: biochemical; assay type: cell-based, Sf9
Description: Inhibition of recombinant human full length C-terminal His tagged HDAC2 (1 to 488 residues) expressed in baculovirus-infected Sf9 insect cells using Ac-peptide as substrate incubated for 4 hrs

Plasmodium falciparum [18] = assay: In vivo inhibition of C-terminal glmS fused HDAC1 in Plasmodium falcipuram 3D7 assessed as inhibition of parasite growth by measuring downregulation of RBC invasion-related genes expression level by RNA-seq analysis; assay type: functional, organism-based
Histone deacetylase 1 = Histone deacetylase 1 (Homo sapiens, UniProt Q13547); assay: Inhibition of recombinant human full length C-terminal His/FLAG tagged HDAC1 (1 to 482 residues) expressed in baculovirus-infected Sf9 cells using Ac-peptide as substrate incubated for 4 hrs
Plasmodium falciparum [19] = assay: In vivo inhibition of C-terminal TY1 fused HDAC1 in Plasmodium falcipuram 3D7 assessed as inhibition of parasite growth by measuring downregulation of RBC invasion-related genes expression level by RNA-seq analysis; assay type: functional, organism-based
[20] = Cmax in BALB/c mouse at 5 mg/kg, ip measured upto 24 hrs by LC-MS/MS analysis; assay type: ADME, organism-based; parameters: route intraperitoneal, dose 5 mg/kg, time <=24; settings: in vivo
[21] = Tmax in BALB/c mouse at 5 mg/kg, ip measured after upto 24 hrs by LC-MS/MS analysis; assay type: ADME, organism-based; settings: in vivo
[22] = AUC (0 to infinity) in BALB/c mouse at 5 mg/kg, ip measured after upto 24 hrs by LC-MS/MS analysis; assay type: ADME, organism-based; parameters: route intraperitoneal, dose 5 mg/kg, time <=24; settings: in vivo
[23] = Apparent elimination half life in BALB/c mouse at 5 mg/kg, ip measured after upto 24 hrs by LC-MS/MS analysis; assay type: ADME, organism-based; settings: in vivo, read-out: betat1/2(app) (converted)
[24] = Apparent volume of distribution in BALB/c mouse at 5 mg/kg, ip measured after upto 24 hrs by LC-MS/MS analysis; assay type: ADME, organism-based; settings: in vivo, read-out: Vz/F
Histone deacetylase 2 [25] = target: T1, Histone deacetylase 2; assay: Potency index, ratio of test compound IC50 to Quisinostat IC50 for inhibition of recombinant human full length C-terminal His tagged HDAC2 (1 to 488 residues) expressed in baculovirus-infected Sf9 insect cells using Ac-peptide as substrate incubated for 4 hrs
[26] = Metabolic stability in human liver microsomes assessed as half life at […] incubated for 45 mins in presence of NADPH by LC/MS analysis; assay type: ADME, Microsome
[27] = target: T2, Histone deacetylase 8 (Homo sapiens) (UniProt Q9BY41); assay: Potency index, ratio of test compound IC50 to Quisinostat IC50 for inhibition of recombinant human full length C-terminal His-tagged HDAC8 expressed in baculovirus-infected Sf9 insect cells using Ac-peptide as substrate incubated for 4 hrs followed by trypsin addition and further incubated for 2 hrs
T2 sequence (whole entry): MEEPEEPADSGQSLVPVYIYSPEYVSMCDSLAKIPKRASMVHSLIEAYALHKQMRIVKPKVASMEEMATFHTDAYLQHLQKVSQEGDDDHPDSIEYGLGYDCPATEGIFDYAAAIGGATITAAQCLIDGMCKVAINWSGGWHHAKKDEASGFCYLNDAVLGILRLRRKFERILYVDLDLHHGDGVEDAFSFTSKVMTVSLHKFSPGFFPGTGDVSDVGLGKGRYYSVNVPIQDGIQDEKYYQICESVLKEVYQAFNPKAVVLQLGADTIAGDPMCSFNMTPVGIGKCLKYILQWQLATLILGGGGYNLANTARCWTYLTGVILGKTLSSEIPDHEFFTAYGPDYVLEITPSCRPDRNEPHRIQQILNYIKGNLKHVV

T1 sequence (Q92769 whole entry, the tested form may be a part): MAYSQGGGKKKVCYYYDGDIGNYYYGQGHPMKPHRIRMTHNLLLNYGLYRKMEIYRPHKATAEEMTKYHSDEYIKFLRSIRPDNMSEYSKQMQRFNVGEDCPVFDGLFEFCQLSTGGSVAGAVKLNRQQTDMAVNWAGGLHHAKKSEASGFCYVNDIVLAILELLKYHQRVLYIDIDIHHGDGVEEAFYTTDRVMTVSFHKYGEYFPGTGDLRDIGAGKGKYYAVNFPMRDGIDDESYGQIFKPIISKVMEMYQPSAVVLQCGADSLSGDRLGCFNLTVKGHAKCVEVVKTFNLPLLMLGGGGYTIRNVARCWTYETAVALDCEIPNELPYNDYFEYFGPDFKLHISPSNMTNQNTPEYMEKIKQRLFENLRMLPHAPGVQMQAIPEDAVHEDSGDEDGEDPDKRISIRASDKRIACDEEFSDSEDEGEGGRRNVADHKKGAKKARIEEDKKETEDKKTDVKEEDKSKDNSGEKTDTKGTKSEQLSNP
Sequence of Histone deacetylase 1 (Q13547 whole entry, the tested form may be a part): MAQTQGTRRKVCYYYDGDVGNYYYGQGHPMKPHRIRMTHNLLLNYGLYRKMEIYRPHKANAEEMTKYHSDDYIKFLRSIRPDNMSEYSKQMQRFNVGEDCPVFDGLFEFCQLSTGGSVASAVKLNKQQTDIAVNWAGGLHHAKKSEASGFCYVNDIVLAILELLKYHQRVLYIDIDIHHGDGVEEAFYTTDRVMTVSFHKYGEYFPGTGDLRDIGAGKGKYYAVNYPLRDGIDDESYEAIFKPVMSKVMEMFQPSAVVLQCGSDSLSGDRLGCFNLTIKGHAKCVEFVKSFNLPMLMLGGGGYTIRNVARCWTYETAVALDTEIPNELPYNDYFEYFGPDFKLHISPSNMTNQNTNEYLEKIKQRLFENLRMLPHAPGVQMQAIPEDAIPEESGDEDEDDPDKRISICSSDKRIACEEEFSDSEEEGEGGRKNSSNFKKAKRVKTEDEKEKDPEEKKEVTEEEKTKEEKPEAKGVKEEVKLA

For Cl.Cn1cc(CN2CC3(CCN(c4ncc(C(=O)NO)cn4)C3)C2)c2ccc(C#N)cc21, the IC50 (Plasmodium falciparum [1]) was 2.18 nM, the IC50 (Plasmodium falciparum [2]) was 1.61 nM and the IC50 at 72 h [3] was 1020 nM. The IC50 at 72 h [4] was 1210 nM, the CLint scaled [5] was 68.1 mL/min/kg and the Activity (Plasmodium yoelii [6]) was 0.11%. For the same molecule, the Activity (Plasmodium yoelii [7]) was 0.02%, the Activity (Plasmodium berghei) was “Active” and the IC50 (Plasmodium falciparum [8]) was 12.4 nM. For the same molecule, the Activity (Plasmodium falciparum [9]) was “Active”, the Activity (Plasmodium falciparum [10]) was 100% and the Activity (Plasmodium falciparum [11]) was “Active”. For the same molecule, the Activity (Plasmodium falciparum [12]) was “Active”, the Activity (Plasmodium falciparum [13]) was “Active” and the Activity (Plasmodium falciparum [14]) was “Active”. For the same molecule, the IC50 [15] was 82.5 nM, the inhibition (Plasmodium falciparum [16]) was “Active” and the IC50 (Histone deacetylase 2 [17]) was 5.1 nM. For the same molecule, the inhibition (Plasmodium falciparum [18]) was “Active”, the IC50 (Histone deacetylase 1) was 2.2 nM and the inhibition (Plasmodium falciparum [19]) was “Active”. The Cmax [20] was 539 ng/mL, the Tmax [21] was 15 min and the AUC(0-inf) [22] was 640 ng·h/mL. The half-life [23] was 54.6 min, the Vd/F [24] was 10.2 L/kg and the Ratio IC50 (Histone deacetylase 2 [25]) was 3. For the same molecule, the half-life [26] was > 120 min and the Ratio IC50 [27] was 3.
